# From patent US11702403B2, “EAAT2 activators and methods of using thereof” (OHIO STATE INNOVATION FOUNDATION, priority 2018, dated 2023)
# Key:
# [1] = test system: EAAT2; test: EAAT2 protein levels in brains of wild-type C57BL/6 mice by Western blot; format: in vivo; conditions: 10 mpk p.o.
# Method: Mice then were euthanized and brains were harvested for examining EAAT2 protein levels by Western blot analysis.
# Wild-type C57BL/6 mice (2-3 months old) were treated orally with compound 101 at 0.01, 0.033, 0.1, 0.33, 1, 3.33, 10, 20, 40, 60, and 100 mg/kg/day (voluntary ingestion of compound in honey) for seven or 28 days. Mice then were euthanized and brains were harvested for examining EAAT2 protein levels by Western blot analysis. […] To determine the functional consequences of the increased EAAT2 to the synaptic plasticity, wild-type mice were treated with vehicle or compound 101 at 0.033, 0.33, and 3.3 mg/kg for seven days. Mice were then euthanized and acute hippocampal slices were collected and assessed for changes in long-term potentiation (LTP).
# [2] = test system: mouse model of Gulf War Illness (GWI); test: Mouse model of Gulf War Illness, mood and cognitive behavior tests; format: in vivo, C57BL/6J mice
# Method: Three months old C57BL/6J mice were randomly divided into three groups: control (no GWI, with vehicle), GWI with vehicle, and GWI with compound. For GWI groups, mice were exposed to GWI chemicals and chronic unpredictable stress daily for 6 weeks. GWI chemicals include pyridostigmine (1.3 mg/kg), permethrin (0.13 mg/kg), and DEET (40 mg/kg). The stress regimen included exposure to two different stressors each day. The stressors used in this study include restraint, cage rotation, hot stress, cold stress, predator sound, periods of darkness during the light cycle, wet bedding, replace bedding with water, cage tilt at 45 degree angle, and stroboscopic lighting. […] At 3-months post-exposure, mice were subjected to several behavior tests to assess mood and cognitive functions. These tests included dark and light exploration, elevated plus maze, novelty suppressed feeding, tail suspension open field, novel object recognition, and Barnes maze tests.
# After one month of treatment, mice were evaluated for mood and cognitive functions.
# [3] = test system: GSK3β; test: Phosphorylation state of kinases in forebrain TCL of rTg4510 mice; format: in vivo; conditions: within one hour of treatment, single dose
# Method: (§1) FIGS. 7A and 7B illustrate the effect of compound treatment on phosphorylated tau in total lysates (TCL) and in the Sarkosyl insoluble (P3) fraction (n=4/group). Dashed-line represents expression in rTg4510 vehicle group.
# (§2) To identify which kinase/phosphatase is involved, forebrain TCL samples were collected from rTg4510 mice one-hour after a single dose. The phosphorylation (activation) state of kinases that have been reported to target tau as a substrate were assessed. […] This form of phosphorylation inhibits GSK3β activity. Therefore, inactivation of the GSK3β kinase may mediate reduced tau phosphorylation in rTg4510 mice after compound treatment.
# [4] = test system: human EAAT2; test: EAAT2 protein levels in PA-EAAT2 cells by Western blot; format: cell-based
# Method: Compounds were evaluated in PA-EAAT2 cells, a primary astrocyte stably expressing human EAAT2 mRNAs (Kong et al., J Clin Invest. 2014:1255-67). Cells were treated with compound at 0.0375, 0.075, 0.15, 0.3, 0.6, 1.25, 2.5, 5, 10 μM for 24 hr and then harvested for measuring EAAT2 protein levels by Western blot analysis.
# [5] = test system: EAAT2; test: EAAT2 protein levels in brains of Beagle dogs by Western blot; format: in vivo; conditions: oral 20 mg/kg; 0.5, 4, 24 hours post-treatment and seven daily treatment
# [6] = test system: tau; test: Tau expression and phosphorylation in total cell lysates and Sarkosyl insoluble fractions of rTg4510 forebrains; format: in vivo, mice
# Source text: as §1
# We, therefore, investigated if the compound could reduce toxic forms of tau. […] Four antibodies, which recognized different phosphorylation sites or pathological forms of tau, were used: PHF1 recognized Ser 396 & Ser404; AT8 recognized Ser202 & Thr205; MC-1 recognized neurofibrillary tangles and Tau5 recognized all of tau (phosphorylated and non-phosphorylated isoforms). […] There was an especially significant reduction in the 64 kDa (hyperphosphorylated) variant for each antibody tested; it has been reported that the 64 kDa variant was strongly correlated with neurodegeneration.
# as §2, with “To identify which kinase/phosphatase is involved, forebrain TCL samples were collected from rTg4510 mice one-hour after a single dose.” left out
# [7] = test system: CA3-CA1 LTP in the hippocampus; test: Long-term potentiation (LTP) in acute hippocampal slices of treated wild-type mice; format: in vivo; conditions: 10 mg/kg for 7 days, vs vehicle, up to 30 min after LTP induction
# Method: Mice were treated with compound at 40 mg/kg (or as depicted) and forebrains were harvested for the gliosome preparation 24 hr (or as described) post-treatment. FIG. 2A: Western blots show dose-dependent increase of EAAT2 protein levels. FIG. 2B: Time-dependent fold increase in EAAT2 protein expression in response to compound treatment at 4 hours (1.54±0.13) and 24 hours (1.98±0.19) post-treatment. Quantification of EAAT2 expression time course (normalized to flotilin; n=4/group). Data represented as mean SEM and analyzed using one-way ANOVA with Tukey post-hoc test. *p<0.05, **p<0.01. FIG. 2C: Compound treatment enhances CA3-CA1 LTP in the hippocampus. Mice were treated with vehicle or compound for seven days and acute hippocampal sections were collected for LTP recordings. […] Data represented as mean SEM analyzed using one-way ANOVA with Bonferroni post-hoc tests. […]
# At 24 hours post-treatment, mice were euthanized and forbrains were harvested. […] Acute hippocampal slices were then collected and assessed for changes in long-term potentiation (LTP).
# Wild-type C57BL/6 mice (2-3 months old) were treated orally with compound 101 at 0.01, 0.033, 0.1, 0.33, 1, 3.33, 10, 20, 40, 60, and 100 mg/kg/day (voluntary ingestion of compound in honey) for seven or 28 days. […] Mice were then euthanized and acute hippocampal slices were collected and assessed for changes in long-term potentiation (LTP).
# [8] = test system: EAAT2; test: EAAT2 protein levels in forebrain gliosomes of wild-type FVB/NJ mice by Western blot; format: in vivo; conditions: oral 1, 2.5, 5, 10, 20, 40 mg/kg, 24 hours post-treatment
# Method: Mice were treated with compound at 40 mg/kg (or as depicted) and forebrains were harvested for the gliosome preparation 24 hr (or as described) post-treatment. FIG. 2A: Western blots show dose-dependent increase of EAAT2 protein levels. FIG. 2B: Time-dependent fold increase in EAAT2 protein expression in response to compound treatment at 4 hours (1.54±0.13) and 24 hours (1.98±0.19) post-treatment. Quantification of EAAT2 expression time course (normalized to flotilin; n=4/group). Data represented as mean SEM and analyzed using one-way ANOVA with Tukey post-hoc test. *p<0.05, **p<0.01. FIG. 2C: Compound treatment enhances CA3-CA1 LTP in the hippocampus. Mice were treated with vehicle or compound for seven days and acute hippocampal sections were collected for LTP recordings. […] Data represented as mean SEM analyzed using one-way ANOVA with Bonferroni post-hoc tests. Statistical significance denoted as ***p<0.001.
# At 24 hours post-treatment, mice were euthanized and forbrains were harvested. Gliosomes (astrocytic processes) were then isolated for measuring EAAT2 protein levels by Western blot analysis. […] This induction could be seen as early as 4 hours post-treatment (FIG. 2B). […] Acute hippocampal slices were then collected and assessed for changes in long-term potentiation (LTP).
# [9] = prevention: 20 mg/kg daily from beginning of 6-weeks exposure, tested 3-months post-exposure
# [10] = treatment: 20 mg/kg at five months post-exposure, one month of treatment
smiles,measurement,setting,value
"CN(C)CCn1nc(-c2ccccn2)ccc1=O [Compound 100, 2-(2-(dimethylamino)ethyl)-6-(pyridin-2-yl)pyridazin-3(2H)-one]",EAAT2 induction in vivo in wild-type mice - 7-day dosing by p.o.,[1]; 7-day dosing,1.63-fold @ 10 mpk
same,EAAT2 induction in vivo in wild-type mice - 28-day dosing by p.o.,[1]; 28-day dosing,2.37-fold @ 10 mpk
same,EAAT2 induction in vivo in wild-type mice - single dose by p.o.,[1]; single dose,1.56-fold @ 10 mpk
same,anxiety- and depression-like behaviors,[2]; [9],significantly reduced
same,cognitive functions,[2]; [9],improved cognitive functions
same,anxiety- and depression-like behaviors,[2]; [10],reduced anxiety- and depression-like behaviors
same,cognitive functions,[2]; [10],significantly improved
same,phosphorylation of GSK3β at Ser9,[3],approximately 2 fold
same,concentration that reaches maximum activity,"[4]; PA-EAAT2 cells, 24 hr, tested 0.0375-10 μM",0.6 µM
same,EC50,"[4]; primary astrocytes, read-out: EAAT2 induction in vitro - primary astrocytes (EC50)",0.25 µM
same,EAAT2 protein levels in dog brains,[5],increased in a time-dependent manner
same,total-tau (transgene expression),"[6]; four months old, after two months of treatment",no reduction in total-tau
same,total tau in the P3 fraction,"[6]; long-term treatment, Sarkosyl insoluble (P3) fraction",very significant reduction
same,phosphorylated (AT8 and PHF1) and conformation specific (MC1) forms of tau,"[6]; long-term treatment, TCL and P3 fraction",reduced
same,all forms of tau in the P3 fraction,"[6]; single dose, 24 hours later",very clear reduction
same,pTau (AT8 and PHF1) in TCL,"[6]; single dose, 24 hours later",significant decrease
same,total tau (Tau-5) or tau tangles (MC1) in TCL,"[6]; single dose, 24 hours later",no change
same,CA1 field potential responses to stimulation of CA3 afferents (LTP),[7],significantly increased responses
same,EAAT2 protein levels in gliosomes,[8],induced EAAT2 expression in a dose-dependent manner
